This is an account of results in patent US12599671B2, “Compounds, compositions, and methods for protein degradation” (DANA-FARBER CANCER INSTITUTE, INC., priority 2020, dated 2026).

What all share (format): cell-based
For test [1], the target named is T1, SMARCA2 (Homo sapiens, UniProt P51531). Description: Immunoblot of SMARCA2 in A549 cells. The settings on record: 1 μM. Further details: endogenous in cells; host or cells: A549. On the procedure: (§1) Human A549 were seeded in 6-well plate and treated with Ex. 4 or Ex. 2 for 16, 24 and 40 h. Human MOLM13 were seeded in 6-well plate and treated with Ex. 4 for 6, 10, 16, 24 h. After treatment cells were harvested and lysed in RIPA buffer (Thermo Scientific) with Halt Protease and Phosphatase Inhibitor Cocktail (Thermo Scientific). Protein was extracted and quantified by BCA Protein Assay Kit (Pierce). Protein lysate was separated by NuPAGE 3-8% Tris-Acetate protein gels (Invitrogen) and detected by SMARCA2, PARP and β-ACTIN antibodies (Cell Signaling Technology).
A general note: A western blot detects proteins with antibodies after separation by electrophoresis.

Test [2] concerns MV4; 11 WT, MV4; 11 CRBN KO, and MOLM13 cells. Nature of the test: Cell growth ATPlite assay. The settings on record: Homo sapiens; ATP level by ATPlite, 48 h treatment, normalized to DMSO; cell line not given. On the procedure: Human MV4; 11 WT, MV4; 11 CRBN KO, and MOLM13 cells were seeded in 384-well plate and treated with indicated compounds for 48 h. ATP level was measured by ATPlite (PerkinElmer) according to manufactures instructions. Experimental groups were measured in quadruplicate and ATP level was normalized to DMSO. IC50 was analyzed in GraphPad Prism 7.
In general terms: Cellular ATP, detected with luciferase, serves as a proxy for viable cell number.

In test [3] the target is T1, SMARCA2. Description: Immunoblot of SMARCA2 in MOLM13 cells. Set-up: endogenous in cells. On the procedure: as §1

T1 sequence (P51531 whole entry): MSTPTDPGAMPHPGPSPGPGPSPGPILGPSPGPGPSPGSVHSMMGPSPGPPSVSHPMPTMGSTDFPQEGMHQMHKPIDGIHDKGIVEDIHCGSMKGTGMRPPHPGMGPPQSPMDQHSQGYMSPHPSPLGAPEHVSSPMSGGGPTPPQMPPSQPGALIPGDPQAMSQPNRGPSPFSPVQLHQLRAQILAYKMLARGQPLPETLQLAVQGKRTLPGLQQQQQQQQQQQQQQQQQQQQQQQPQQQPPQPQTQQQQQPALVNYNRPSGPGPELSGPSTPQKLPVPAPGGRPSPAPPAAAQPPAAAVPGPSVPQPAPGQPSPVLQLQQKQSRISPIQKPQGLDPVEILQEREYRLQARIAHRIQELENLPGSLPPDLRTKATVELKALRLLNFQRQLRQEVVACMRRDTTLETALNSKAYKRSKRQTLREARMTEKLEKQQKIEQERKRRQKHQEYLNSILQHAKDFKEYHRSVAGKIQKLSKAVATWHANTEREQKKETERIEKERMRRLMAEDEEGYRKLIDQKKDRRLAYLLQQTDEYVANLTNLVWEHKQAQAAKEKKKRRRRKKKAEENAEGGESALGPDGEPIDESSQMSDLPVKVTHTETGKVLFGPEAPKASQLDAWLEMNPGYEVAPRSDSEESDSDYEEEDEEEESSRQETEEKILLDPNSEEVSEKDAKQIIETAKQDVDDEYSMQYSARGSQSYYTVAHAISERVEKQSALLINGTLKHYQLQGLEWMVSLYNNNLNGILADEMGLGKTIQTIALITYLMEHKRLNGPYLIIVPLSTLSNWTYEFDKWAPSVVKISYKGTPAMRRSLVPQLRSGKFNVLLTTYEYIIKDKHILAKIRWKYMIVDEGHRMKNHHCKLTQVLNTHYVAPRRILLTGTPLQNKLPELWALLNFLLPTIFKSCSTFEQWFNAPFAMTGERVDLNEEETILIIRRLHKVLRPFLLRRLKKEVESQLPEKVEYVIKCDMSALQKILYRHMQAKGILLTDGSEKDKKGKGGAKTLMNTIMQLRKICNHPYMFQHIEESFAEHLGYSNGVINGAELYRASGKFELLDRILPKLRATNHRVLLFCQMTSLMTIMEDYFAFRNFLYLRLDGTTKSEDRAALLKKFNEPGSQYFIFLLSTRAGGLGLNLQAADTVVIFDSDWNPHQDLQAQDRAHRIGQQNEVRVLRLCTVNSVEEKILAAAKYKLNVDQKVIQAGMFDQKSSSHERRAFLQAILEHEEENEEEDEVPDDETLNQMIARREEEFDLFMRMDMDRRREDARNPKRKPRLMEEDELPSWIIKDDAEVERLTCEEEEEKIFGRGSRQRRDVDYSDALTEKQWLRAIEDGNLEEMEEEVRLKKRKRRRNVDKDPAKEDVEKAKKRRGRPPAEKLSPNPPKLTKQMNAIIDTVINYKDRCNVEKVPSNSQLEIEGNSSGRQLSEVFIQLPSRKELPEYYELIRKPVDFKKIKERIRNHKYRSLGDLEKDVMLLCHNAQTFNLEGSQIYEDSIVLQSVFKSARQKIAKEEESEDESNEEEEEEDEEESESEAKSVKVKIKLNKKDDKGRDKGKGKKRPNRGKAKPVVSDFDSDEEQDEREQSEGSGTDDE

The term IC50 denotes the point on the concentration scale where inhibition reaches its midpoint. A higher IC50 goes with weaker potency in that assay. `O=C1CCC(N2C(=O)c3cccc(NCCCCCCCCNC(=O)c4cccc(C#Cc5cc(NC(=O)Nc6ccnc(Cl)c6)ccn5)c4)c3C2=O)C(=O)N1` (stereo not shown) [Example 2]: the “time after which cells started to exhibit protein degradation (Western Blot)” value at SMARCA2 [1] was 40 h. This molecule gave a 50% inhibitory concentration (IC50) in test [2] of 100 to 1000 nM.
In test [2], `O=C1CCC(N2C(=O)c3cccc(NCCOCCOCCNC(=O)c4cccc(C#Cc5cc(NC(=O)Nc6ccnc(Cl)c6)ccn5)c4)c3C2=O)C(=O)N1` (stereo not shown) [Example 3] yielded an IC50 of 100 to 1000 nM.
Turning to `O=C1CCC(N2C(=O)c3cccc(NCCCCNC(=O)c4cccc(C#Cc5cc(NC(=O)Nc6ccnc(Cl)c6)ccn5)c4)c3C2=O)C(=O)N1` (stereo not shown) [Example 4], the results for the “time after which cells started to exhibit protein degradation (Western Blot)” value on SMARCA2 [3] and on SMARCA2 [1] were 16 h and 40 h, respectively. In test [2], this molecule had a half-inhibitory concentration (IC50) of at most 100 nM.
As to `O=C1CCC(N2C(=O)c3ccc(NCCCCNC(=O)c4cccc(C#Cc5cc(NC(=O)Nc6ccnc(Cl)c6)ccn5)c4)cc3C2=O)C(=O)N1` (stereo not shown) [Example 7], the half-inhibitory concentration (IC50) in test [2] was at most 100 nM.
Same read-out and setting: in the case of `O=C1CCC(N2C(=O)c3ccc(NCCOCCNC(=O)c4cccc(C#Cc5cc(NC(=O)Nc6ccnc(Cl)c6)ccn5)c4)cc3C2=O)C(=O)N1` (stereo not shown) [Example 8] it was at most 100 nM; in that of `Cc1ncsc1-c1ccc(CNC(=O)[C@@H]2C[C@@H](O)CN2C(=O)[C@@H](NC(=O)CCCCCNC(=O)c2cccc(C#Cc3cc(NC(=O)Nc4ccnc(Cl)c4)ccn3)c2)C(C)(C)C)cc1` [Example 9], over 100000 nM; in that of `Cc1ncsc1-c1ccc(CNC(=O)[C@@H]2C[C@@H](O)CN2C(=O)[C@@H](NC(=O)COCCOCCOCCNC(=O)c2cccc(C#Cc3cc(NC(=O)Nc4ccnc(Cl)c4)ccn3)c2)C(C)(C)C)cc1` [Example 10], 1000 to 10000 nM.
For the molecule `O=C1CCC(N2C(=O)c3cccc(NCCNC(=O)c4cccc(C#Cc5cc(NC(=O)Nc6ccnc(Cl)c6)ccn5)c4)c3C2=O)C(=O)N1` (stereo not shown) [Example 11], the IC50 in test [2] was over 100000 nM.
In test [2], `O=C1CCC(N2C(=O)c3cccc(NCCCCCCNC(=O)c4cccc(C#Cc5cc(NC(=O)Nc6ccnc(Cl)c6)ccn5)c4)c3C2=O)C(=O)N1` (stereo not shown) [Example 12] showed an IC50 of at most 100 nM.
The same measure, in the same setting: in the case of `O=C1CCC(N2C(=O)c3cccc(NCCCCCCCCCCCC(=O)OCc4cnc(Cl)cc4NC(=O)Nc4cc(C(F)F)ns4)c3C2=O)C(=O)N1` (stereo not shown) [Example 14] it was 1000 to 10000 nM.
